One assay deals with T1, chimeric human H3 receptor (Homo sapiens, UniProt Q9Y5N1, E19D).
T1 construct: made in house; host or cells: Sf9 insect cells (baculovirus infection); P2 membrane preparation
T1 sequence (Q9Y5N1 with tags, fused parts or gaps E19D): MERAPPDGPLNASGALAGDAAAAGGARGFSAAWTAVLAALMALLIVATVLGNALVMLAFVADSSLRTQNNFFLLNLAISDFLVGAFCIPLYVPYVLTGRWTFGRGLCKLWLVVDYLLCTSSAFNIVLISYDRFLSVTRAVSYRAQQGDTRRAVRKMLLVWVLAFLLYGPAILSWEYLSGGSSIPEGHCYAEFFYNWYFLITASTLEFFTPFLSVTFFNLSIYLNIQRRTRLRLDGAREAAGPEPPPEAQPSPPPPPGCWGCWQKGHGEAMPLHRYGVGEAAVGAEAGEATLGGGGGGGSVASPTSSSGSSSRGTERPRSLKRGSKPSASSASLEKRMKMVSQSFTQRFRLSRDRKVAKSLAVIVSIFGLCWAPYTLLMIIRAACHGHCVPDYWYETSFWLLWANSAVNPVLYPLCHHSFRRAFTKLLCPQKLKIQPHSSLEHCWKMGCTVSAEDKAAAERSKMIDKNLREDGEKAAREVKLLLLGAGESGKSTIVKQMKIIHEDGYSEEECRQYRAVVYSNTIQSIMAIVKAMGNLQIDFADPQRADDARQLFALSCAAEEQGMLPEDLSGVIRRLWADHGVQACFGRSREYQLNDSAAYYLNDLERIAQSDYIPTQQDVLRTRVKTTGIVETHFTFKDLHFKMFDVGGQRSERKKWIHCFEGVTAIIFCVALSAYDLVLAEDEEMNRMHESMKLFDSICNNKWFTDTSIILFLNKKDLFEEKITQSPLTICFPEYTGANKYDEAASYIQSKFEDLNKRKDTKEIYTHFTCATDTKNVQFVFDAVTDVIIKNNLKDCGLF
The assay is described as follows: Chimeric human H3 receptor GTP binding assay (agonist-stimulated GTP-gamma35S binding, Example 7). It is filed as biochemical. The conditions noted are these: "*" in Ki of Table II; assay of Example 7; read-out: Ki. The method, boiled down: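 IC50 values come from non-linear regression of dose-response curves of filter-bound GTP-gamma^35S, counted by scintillation. Membranes were from infected Sf9 cells carrying receptor plus G-protein subunits, 35 μg/tube, with 10 μM GDP present.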
A word on the Ki: it is the equilibrium dissociation constant of an inhibitor or competing ligand from its target. In the case of `CCCN(CCC)C1CCN(CC(=O)N2CCN(C(C)CC)CC2)CC1` (centres unmarked) [Compound 450, 1-[2-(4-sec-butylpiperazin-1-yl)-2-oxoethyl]-N,N-dipropylpiperidin-4-amine], the Ki is below 1000 nM.

Still in this assay, the particulars now being: Table II "Ki", symbol "*": Ki in the assay of Example 7; read-out: Ki.
Turning to `COc1ccc(N2CCN(CC(=O)N3CCN(C4CCCCC4)CC3)CC2)cc1OC` [Compound 816, 1-cyclohexyl-4-{[4-(3,4-dimethoxyphenyl)piperazin-1-yl]acetyl}piperazine], the Ki is below 1000 nM. Turning to `O=C(CN1CCN(C(=O)C2CCCO2)CC1)N1CCN(C2CCC2)CC1` (centres unmarked) [Compound 801, 1-cyclobutyl-4-{[4-(tetrahydrofuran-2-ylcarbonyl)piperazin-1-yl]acetyl}piperazine], the Ki is below 1000 nM. As to `CCC(C)N1CCN(C(=O)CN2CCN(c3ccc(C)cc3C)CC2)CC1` (centres unmarked) [Compound 863], the Ki was below 1000 nM. As for `O=C1CCc2cc(N3CCC(C(=O)OCC(=O)N4CCN(C5CCC5)CC4)CC3)ccc21` [Compound 905, 2-(4-cyclobutylpiperazin-1-yl)-2-oxoethyl 1-(1-oxo-2,3-dihydro-1H-inden-5-yl)piperidine-4-carboxylate], the Ki is below 1000 nM. For `Cc1ccc(N2CCN(CC(=O)N3CCN(C4CCC4)CC3)CC2)cc1` [Compound 785, 1-cyclobutyl-4-{[4-(4-methylphenyl)piperazin-1-yl]acetyl}piperazine], the Ki is below 1000 nM.

In the case of `O=C(CN1CCN(c2cnc(-c3ccc(F)cc3)cn2)CC1)N1CCN(C2CCC2)CC1` [Compound 919, 2-{4-[2-(4-cyclobutylpiperazin-1-yl)-2-oxoethyl]piperazin-1-yl}-5-(4-fluorophenyl)pyrazine], the Ki is below 1000 nM.

`CC(=O)c1ccc(N2CCC(C(=O)OCC(=O)N3CCN(C4CCCC4)CC3)CC2)cc1` [Compound 908, 2-(4-cyclopentylpiperazin-1-yl)-2-oxoethyl 1-(4-acetylphenyl)piperidine-4-carboxylate]: the Ki was below 1000 nM. Take `COc1ccc(C(C)C)cc1-c1ccc(N2CCN(CC(=O)N3CCN(C4CCC4)CC3)CC2)cc1` [Compound 793, 1-cyclobutyl-4-{[4-(5′-isopropyl-2′-methoxybiphenyl-4-yl)piperazin-1-yl]acetyl}piperazine]: the Ki is below 1000 nM.

As for `CCC(C)N1CCN(C(=O)CN2CCN(c3ccc(C)c(C)c3)CC2)CC1` (centres unmarked) [Compound 871, 1-sec-butyl-4-{[4-(3,4-dimethylphenyl)piperazin-1-yl]acetyl}piperazine], the Ki is below 1000 nM.

Staying with this assay, now noted: Table II, "*" in Ki; assay of Example 7; read-out: Ki.
Turning to `COc1cc(F)c(-c2ccc(N3CCN(CC(=O)N4CCN(C5CCC5)CC4)CC3)cc2)cc1F` [Compound 683, 1-cyclobutyl-4-{[4-(2′,5′-difluoro-4′-methoxybiphenyl-4-yl)piperazin-1-yl]acetyl}piperazine], the Ki is below 1000 nM.

Regarding `O=C(CN1CCN(c2ccc(C(=O)N3CCCCC3)cc2)CC1)N1CCN(C2CCC2)CC1` [Compound 601, 1-cyclobutyl-4-({40[4-(piperidin-1-ylcarbonyl)phenyl]piperazin-1-yl}acetyl)piperazine], the Ki is below 1000 nM. `Cc1cccc(N2CCN(CC(=O)N3CCN(C4CCC4)CC3)CC2)c1` [Compound 763, 1-cyclobutyl-4-{[4-(3-methylphenyl)piperazin-1-yl]acetyl}piperazine]: the inhibition constant Ki was below 1000 nM. `O=C(CN1CCN(c2ccc(C(=O)N3CCCC3)cn2)CC1)N1CCN(C2CCC2)CC1` [Compound 611, 1-cyclobutyl-4-({4-[5-(pyrrolidin-1-ylcarbonyl)pyridin-2-yl]piperazin-1-yl}acetyl)piperazine]: the Ki is below 1000 nM. For the compound `O=C(CN1CCN(c2ccc(-c3ccc(C(F)(F)F)cc3)cc2)CC1)N1CCN(C2CCC2)CC1` [Compound 606, 1-cyclobutyl-4-({4-[4′-(trifluoromethyl)biphenyl-4-yl]piperazin-1-yl}acetyl)piperazine], the Ki is below 1000 nM. Take `Cc1ccc(-c2ccc(N3CCN(CC(=O)N4CCN(C5CCC5)CC4)CC3)cc2)c(F)c1` [Compound 704, 1-cyclobutyl-4-{[4-(2′-fluoro-4′-methylbiphenyl-4-yl)piperazin-1-yl]acetyl}piperazine]: the Ki is below 1000 nM. As for `COc1cccc(-c2ccc(N3CCN(CC(=O)N4CCN(C5CCC5)CC4)CC3)cc2)c1` [Compound 758, 1-cyclobutyl-4-{[4-(3′-methoxybiphenyl-4-yl)piperazin-1-yl]acetyl}piperazine], the Ki is below 1000 nM.

`CC(C)c1cccc(-c2ccc(N3CCN(CC(=O)N4CCN(C5CCC5)CC4)CC3)cc2)c1` [Compound 756, 1-cyclobutyl-4-{[4-(3′-isopropylbiphenyl-4-yl)piperazin-1-yl]acetyl}piperazine]: the Ki is below 1000 nM.

Still in this assay, the particulars now being: Table II; assay of Example 7; "*" in Ki; read-out: Ki.
Regarding `CSc1cccc(-c2ccc(N3CCN(CC(=O)N4CCN(C5CCC5)CC4)CC3)nn2)c1` [Compound 1025, 3-{4-[2-(4-cyclobutylpiperazin-1-yl)-2-oxoethyl]piperazin-1-yl}-6-[3-(methylthio)phenyl] pyridazine], the Ki is below 1000 nM.

Consider `O=C(CN1CCN(c2ccc(-c3ccc(Cl)c(Cl)c3)nn2)CC1)N1CCN(C2CCC2)CC1` [Compound 1051, 3-{4-[2-(4-cyclobutylpiperazin-1-yl)-2-oxoethyl]piperazin-1-yl}-6-(3,4-dichlorophenyl)pyridazine], for which the Ki is below 1000 nM. In the case of `O=C(CN1CCN(c2ccc(-c3cc(C(F)(F)F)cc(C(F)(F)F)c3)nn2)CC1)N1CCN(C2CCC2)CC1` [Compound 998, 3-[3,5-bis(trifluoromethyl)phenyl]-6-{4-[2-(4-cyclobutylpiperazin-1-yl)-2-oxoethyl]piperazin-1-yl}pyridazine], the Ki was below 1000 nM. Take `O=C(CN1CCN(c2ccc(-c3cccc(Cl)c3)nn2)CC1)N1CCN(C2CCC2)CC1` [Compound 988, 3-(3-chlorophenyl)-6-{4-[2-(4-cyclobutylpiperazin-1-yl)-2-oxoethyl]piperazin-1-yl}pyridazine]: the Ki was below 1000 nM.

As for `CC(C)c1ccc(-c2ccc(N3CCN(CC(=O)N4CCN(C5CCC5)CC4)CC3)nn2)cc1` [Compound 1014, 3-{4-[2-(4-cyclobutylpiperazin-1-yl)-2-oxoethyl]piperazin-1-yl}-6-(4-isopropylphenyl) pyridazine], the Ki is below 1000 nM.

Staying with this assay, now noted: assay of Example 7; "*" in Ki of Table II; read-out: Ki.
In the case of `O=C(NC1CC1)c1ccc(N2CCN(CC(=O)N3CCN(C4CCC4)CC3)CC2)cc1` [Compound 1138, 4-{4-[2-(4-cyclobutylpiperazin-1-yl)-2-oxoethyl]piperazin-1-yl}-N-cyclopropylbenzamide], the Ki was below 1000 nM. Still for that read-out and setting: for `Cc1cccc(C(=O)NC2CCN(CC(=O)N3CCN(C4CCC4)CC3)C2)c1` (centres unmarked) [Compound 1230, N-{1-[2-(4-cyclobutylpiperazin-1-yl)-2-oxoethyl]pyrrolidin-3-yl}-3-methylbenzamide] the value was below 1000 nM.

As for `CC(=O)c1ccc(N2C[C@@H](C)N(CC(=O)N3CCN(C4CCC4)CC3)C[C@@H]2C)cc1` (relative stereo) [Compound 1269, rel-1-(4-{(2R,5S)-4-[2-(4-cyclobutylpiperazin-1-yl)-2-oxoethyl]-2,5-dimethylpiperazin-1-yl}phenyl)ethanone], the Ki was below 1000 nM. Consider `Cc1ccc(C(=O)NC2CCN(CC(=O)N3CCN(C4CCC4)CC3)C2)cc1C` (centres unmarked) [Compound 1232, N-{1-[2-(4-cyclobutylpiperazin-1-yl)-2-oxoethyl]pyrrolidin-3-yl}-3,4-dimethylbenzamide], for which the Ki is below 1000 nM. On to `CC(=O)c1ccc(N2C[C@@H](C)N(CC(=O)N3CCN(C4CCC4)CC3)[C@@H](C)C2)cc1` [Compound 1270, rel-1-(4-{(3R,5S)-4-[2-(4-cyclobutylpiperazin-1-yl)-2-oxoethyl]-3,5-dimethylpiperazin-1-yl}phenyl)ethanone], for which the Ki is below 1000 nM. `O=C(CC1CCCC1)NC1CCN(CC(=O)N2CCN(C3CCC3)CC2)CC1` [Compound 1208, N-{1-[2-(4-cyclobutylpiperazin-1-yl)-2-oxoethyl]piperidin-4-yl}-2-cyclopentylacetamide]: the Ki is below 1000 nM. Take `CCN(C(=O)c1ccc(N2CCN(CC(=O)N3CCN(C4CCC4)CC3)CC2)nc1)C(C)C` [Compound 1168, 6-{4-[2-(4-cyclobutylpiperazin-1-yl)-2-oxoethyl]piperazin-1-yl}-N-ethyl-N-isopropylnicotinamide]: the Ki was below 1000 nM.

The assay is the same for the next values; noted with them: assay of Example 7; symbol * in column headed Ki of Table II; read-out: Ki.
As to `O=C(CN1CCN(c2ccc(-c3cccc(Cl)c3)cc2)CC1)N1CCN(C2CCC2)CC1` [Compound 300, 1-(3′-chlorobiphenyl-4-yl)-4-[2-(4-cyclobutylpiperazin-1-yl)-2-oxoethyl]piperazine], the inhibitory constant (Ki) is below 1000 nM.

In the case of `Cc1cc(N2CCN(CC(=O)N3CCN(C4CCCCC4)CC3)CC2)ccc1Cl` [Compound 350, 1-(4-chloro-3-methylphenyl)-4-[2-(4-cyclohexylpiperazin-1-yl)-2-oxoethyl]piperazine], the Ki was below 1000 nM. Consider `CC(C)C(=O)c1ccc(N2CCN(CC(=O)N3CCN(C4CCCC4)CC3)CC2)cc1` [Compound 325, 1-(4-{4-[2-(4-cyclopentylpiperazin-1-yl)-2-oxoethyl]piperazin-1-yl}phenyl)-2-methylpropan-1-one], for which the Ki is below 1000 nM. Turning to `Cc1cc(N2CCN(CC(=O)N3CCN(C4CCCC4)CC3)CC2)ccc1Cl` [Compound 351, 1-(4-chloro-3-methylphenyl)-4-[2-(4-cyclopentylpiperazin-1-yl)-2-oxoethyl]piperazine], the Ki was below 1000 nM. As for `O=C(CN1CCC(N2CCCCC2)CC1)N1CCN(C2CCC2)CC1` [Compound 421, 1′-[2-(4-cyclobutylpiperazin-1-yl)-2-oxoethyl]-1,4′-bipiperidine], the Ki is below 1000 nM.
